# Measurements from the supplement of paper PMC10307832.
# Tests used:
# Assay in all cases: relative viability (nuclei count vs DMSO), 5 days (fraction); higher = more cells survive
# Vandetanib + Pemetrexed = compound: COc1cc2/c(=N/c3ccc(Br)cc3F)nc[nH]c2cc1OCC1CCN(C)CC1 [Vandetanib] + Nc1nc2[nH]cc(CCc3ccc(C(=O)N[C@@H](CCC(=O)O)C(=O)O)cc3)c2c(=O)[nH]1 [Pemetrexed] (partner 0.2 µM)
# How it was run: (§1)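 A single step with final 0.05% Triton X-100, 1% formaldehyde and 1 ug/ml Hoechst fixed the cells and stained nuclei 5 days after treatment. Lung cancer cell lines in 1536-well plates had been treated by pin tool the day after seeding with one drug alone or a fixed anchor-drug dose plus five library-drug doses (not always all listed) in √10 steps, and nuclei were counted on 4× images. Relative viability is the ratio of nuclei in treated wells to nuclei in vehicle wells, taken as the median of duplicate plates.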
# Vandetanib + Luminespib = compound: COc1cc2/c(=N/c3ccc(Br)cc3F)nc[nH]c2cc1OCC1CCN(C)CC1 [Vandetanib] + CCNC(=O)c1noc(-c2cc(C(C)C)c(O)cc2O)c1-c1ccc(CN2CCOCC2)cc1 [Luminespib] (partner 0.01 µM)
# How it was run: as §1
# CUDC-101 + Pemetrexed = compound: C#Cc1cccc(Nc2ncnc3cc(OC)c(OCCCCCCC(=O)NO)cc23)c1 [CUDC-101] + Nc1nc2[nH]cc(CCc3ccc(C(=O)N[C@@H](CCC(=O)O)C(=O)O)cc3)c2c(=O)[nH]1 [Pemetrexed] (partner 0.2 µM)
# How it was run: as §1
# [1] = compound: C1=CC=C2C(=C1)N=C(S2)C(C#N)C3=NC(=NC=C3)NCCC4=CN=CC=C4 + Cc1cc(Nc2cc(N3CCN(C)CC3)nc(Sc3ccc(NC(=O)C4CC4)cc3)n2)n[nH]1 [Tozasertib] (partner 0.1 µM)
# How it was run: as §1
Cell Line,relative viability (Vandetanib + Pemetrexed; first compound 0.02 µM),relative viability (Vandetanib + Pemetrexed; first compound 0.06325 µM),relative viability (Vandetanib + Pemetrexed; first compound 0.2 µM),relative viability (Vandetanib + Pemetrexed; first compound 0.6325 µM),relative viability (Vandetanib + Pemetrexed; first compound 2 µM),relative viability (Vandetanib + Luminespib; first compound 0.02 µM),relative viability (Vandetanib + Luminespib; first compound 0.06325 µM),relative viability (Vandetanib + Luminespib; first compound 0.2 µM),relative viability (Vandetanib + Luminespib; first compound 0.6325 µM),relative viability (Vandetanib + Luminespib; first compound 2 µM),relative viability (CUDC-101 + Pemetrexed; first compound 0.01 µM),relative viability (CUDC-101 + Pemetrexed; first compound 0.03162 µM),relative viability (CUDC-101 + Pemetrexed; first compound 0.1 µM),relative viability (CUDC-101 + Pemetrexed; first compound 0.3162 µM),relative viability (CUDC-101 + Pemetrexed; first compound 1 µM),relative viability ([1]; first compound 0.01581 µM),relative viability ([1]; first compound 0.05 µM),relative viability ([1]; first compound 0.1581 µM),relative viability ([1]; first compound 0.5 µM),relative viability ([1]; first compound 0.005 µM)
NCI-H441,0.252,0.269,0.27,0.263,0.263,0.376,0.392,0.208,0.409,0.45,0.248,0.261,0.263,0.274,0.228,0.715,0.633,0.759,0.531,
NCI-H460,0.0623,0.0604,0.0622,0.0619,0.0589,0.0345,0.0344,0.0312,0.0333,0.0336,0.0606,0.0635,0.0676,0.0669,0.0703,0.282,0.302,0.204,0.0413,0.396
NCI-H520,0.705,0.646,0.607,0.783,0.679,0.206,0.218,0.222,0.253,0.209,0.711,0.755,0.774,0.608,0.342,0.431,0.467,0.376,0.421,0.406
NCI-H522,0.941,1.02,0.957,1.25,0.999,1.3,1.17,1.11,1.18,0.96,0.87,0.802,1.05,0.963,0.765,0.553,0.501,0.573,0.537,0.458
NCI-H596,0.476,0.565,0.427,0.52,0.469,0.915,0.89,0.81,1.02,0.771,0.466,0.538,0.482,0.644,0.472,1,0.81,0.917,0.853,0.774
NCI-H647,0.185,0.152,0.182,0.153,0.175,0.334,0.337,0.0629,0.283,0.285,0.177,0.167,0.199,0.194,0.165,0.342,0.289,0.292,0.151,0.315
NCI-H650,0.844,0.801,0.869,0.964,0.873,0.843,0.667,,0.992,0.766,1.02,0.916,1,0.904,0.803,,0.708,0.742,0.644,0.633
NCI-H661,0.882,0.938,0.98,0.907,0.907,0.912,0.914,0.869,0.934,0.978,0.956,0.903,0.953,0.968,0.631,0.332,0.342,0.355,0.392,0.365
NCI-H838,0.242,0.243,0.251,0.232,0.237,0.354,0.353,0.145,0.333,0.278,0.332,0.248,0.257,0.26,0.198,0.289,0.243,0.282,0.223,0.28
NCI-H1355,1.03,0.994,1.05,0.985,1.06,0.618,0.731,0.838,0.685,0.698,0.995,1.07,0.974,1.13,1.02,0.516,0.463,0.594,0.385,0.445
NCI-H1395,0.917,0.902,0.746,0.842,0.612,0.715,0.539,0.729,0.6,0.879,0.856,0.91,0.943,0.877,0.676,0.69,0.755,0.713,0.756,0.684
NCI-H1437,0.308,0.306,0.307,0.319,0.304,1.12,1.09,0.255,1.21,1.06,0.336,0.306,0.337,0.31,0.316,0.389,0.414,0.401,0.325,0.355
NCI-H1650,0.374,0.315,0.404,0.371,0.392,0.198,0.216,0.161,0.21,0.154,0.381,0.297,0.389,0.397,0.351,0.405,0.391,0.377,0.315,0.289
NCI-H1651,0.579,0.583,0.555,0.5,0.505,1.09,1.01,0.171,0.901,0.641,0.614,0.579,0.579,0.577,0.523,0.793,0.518,0.661,0.457,0.618
NCI-H1666,0.793,0.879,0.881,0.803,0.874,1.05,0.981,0.405,0.949,0.823,0.985,0.843,0.774,0.854,0.833,0.615,0.541,0.651,0.617,0.642
NCI-H1734,0.4,0.388,0.41,0.404,0.467,0.205,0.204,0.135,0.187,0.229,0.414,0.407,0.392,0.465,0.39,0.247,0.248,0.264,0.267,
NCI-H1755,0.396,0.53,0.464,0.482,0.451,0.396,0.43,0.409,0.783,0.353,0.425,0.42,0.441,0.407,0.384,0.544,0.563,0.598,0.584,0.448
NCI-H1793,1.02,0.779,0.772,0.711,0.744,0.189,0.14,0.159,0.209,0.166,0.75,0.777,0.663,0.889,0.494,0.334,0.264,0.32,0.317,0.262
NCI-H1915,0.496,0.509,0.523,0.505,0.477,0.744,0.808,0.766,0.766,0.733,0.495,0.45,0.45,0.497,0.455,0.455,0.442,0.534,0.305,0.343
NCI-H1944,0.615,0.566,0.682,0.564,0.58,0.811,0.743,0.745,0.676,0.651,0.62,0.615,0.597,0.582,0.43,0.255,0.25,0.269,0.24,0.275
NCI-H1975,0.296,0.275,0.268,0.285,0.306,0.347,0.27,0.224,0.173,0.236,0.27,0.283,0.296,0.277,0.313,0.741,0.635,0.878,0.203,0.458
NCI-H1993,0.629,0.55,0.707,0.515,0.598,0.951,0.785,0.538,0.838,0.721,0.586,0.616,0.637,0.606,0.517,0.657,0.521,0.608,0.577,0.625
NCI-H2009,1.02,1.14,0.99,0.986,1.05,1.04,0.998,0.17,1.07,1.03,1.05,1.02,1.02,0.994,0.997,0.747,0.65,0.763,0.629,0.683
NCI-H2023,0.182,0.197,,0.202,0.252,0.811,0.604,0.796,0.731,0.497,0.255,0.298,0.201,0.233,0.183,0.386,0.251,0.275,0.136,0.288
NCI-H2085,1.02,0.786,0.776,0.765,0.767,0.451,0.384,0.269,0.478,0.398,0.779,0.665,0.89,0.959,0.63,0.821,0.744,0.813,0.566,0.826
NCI-H2087,0.661,0.64,0.619,0.641,0.623,0.183,0.197,0.132,0.179,0.255,0.681,0.699,0.648,0.605,0.678,0.229,0.234,0.199,0.211,0.201
NCI-H2126,0.658,0.632,0.715,0.669,0.651,0.882,0.855,0.888,0.914,0.687,0.635,0.659,0.761,0.687,0.529,0.837,0.823,0.934,0.681,0.709
